Where a name gives a salt, the structure may show the parent alone.
Assay: In vitro inhibition of calcium phosphate crystallization in human plasma (spectrophotometric)
Type: biochemical
Conditions: 0-100 μM, 1.5 mM phosphate, 12.5 mM calcium, pH 7.4, 30 min, rt, read-out: Relative Potency (EC50, inhibition of calcium phosphate crystallization)
Experimental: The in vitro efficacy of the IP4-4,6 substituted derivatives (e.g., Compounds 1 to 53) of the invention on the inhibition of calcium phosphate crystallization in human plasma samples was evaluated according to a spectrophotometric assay previously described in the art (Ferrer M, et al., Sci Rep 2017; 7:6858, doi:10.1038/s41598-017-07203-x).
A 96-well plate was employed. Plasma was spiked (1 volume of the IP4-4,6 substituted derivatives of the invention per 19 volumes of plasma) with increasing concentrations of the derivatives in the range of 0-100 μM. Plasma was then centrifuged at 10,000 g at rt and subsequently mixed with a mixture of 5 mM hydrogen phosphate and 41.67 mM calcium to attain final concentrations of 1.5 mM phosphate and 12.5 mM calcium, respectively. All reagent solutions were filtered, and pH adjusted to 7.4.
Crystallization of calcium phosphate was monitored spectrophotometrically for 30 min at rt by measuring the increments in absorbance at 550 nm using the Biotek Powerwave XS Microplate spectrophotometer (BioTek Instruments, Inc., Winooski, VT, US). The plate was incubated at rt in an orbital shaker and absorbance measured every 3 min.
Plasma crystallization was assessed based on slope measurement in the linear range between 6 and 24 min from plots of increase in absorbance versus logarithm of time. The efficacy of different myo-inositol phosphates derivatives in preventing in vitro formation of calcium phosphate crystals was assessed in human plasma samples using the slopes obtained between 6- and 24-min. Inhibition of crystallization was measured by comparing the slopes of the control sample (blank plasma) with those of samples containing the inhibitor as shown below: […]

| Compound | EC50 |
| --- | --- |
| 4,6-O-(6-(4-carboxy-1H-1,2,3-triazol-1-yl) hexyl)-myo-inositol-1,2,3,5-tetrakis(phosphate) decasodium salt [Compound 40] | ≤ 5 µM |
| 4,6-O-bis(2-(4-acetylpiperazin-1-yl)ethyl)-myo-inositol-1,2,3,5-tetrakis(phosphate) octasodium salt [Compound 34] | 5 to 10 µM |
| 4,6-O-bis(3-(3-phenylureido)propyl)-myo-inositol-1,2,3,5-tetrakis(phosphate) octasodium salt [Compound 46] | 5 to 10 µM |
| 4,6-O-bis(3-(4-(2-carboxyethyl)-1H-1,2,3-triazol-1-yl)propyl)-myo-inositol-1,2,3,5-tetrakis(phosphate) decasodium salt [Compound 35] | ≤ 5 µM |
| 4,6-O-bis(3-(4-(methoxymethyl)-1H-1,2,3-triazol-1-yl)propyl)-myo-inositol-1,2,3,5-tetrakis(phosphate) octasodium salt [Compound 36] | 5 to 10 µM |
| 4,6-O-bis(3-((methoxycarbonyl)amino)propyl)-myo-inositol-1,2,3,5-tetrakis(phosphate) octasodium salt [Compound 24] | > 10 µM |
| 4,6-O-bis(3-methoxypropyl)-myo-inositol-1,2,3,5-tetrakis(phosphate) octasodium salt [Compound 10] | ≤ 5 µM |
| 4,6-O-bis(4-amino-4-oxobutyl)-myo-inositol-1,2,3,5-tetrakis(phosphate) octasodium salt [Compound 26] | ≤ 5 µM |
| 4,6-O-bis(4-methylpentyl)-myo-inositol-1,2,3,5-tetrakis(phosphate) octasodium salt [Compound 21] | > 10 µM |
| 4,6-O-bis(5-(4-(methoxymethyl)-1H-1,2,3-triazol-1-yl) pentyl)-myo-inositol-1,2,3,5-tetrakis(phosphate) octasodium salt [Compound 38] | ≤ 5 µM |
| 4,6-O-bis(5-carboxypentyl)-myo-inositol-1,2,3,5-tetrakis(phosphate) decasodium salt [Compound 18] | ≤ 5 µM |
| 4,6-O-bis(5-methoxypentyl)-myo-inositol-1,2,3,5-tetrakis(phosphate) octasodium salt [Compound 9] | ≤ 5 µM |
| 4,6-O-bis(6,6,6-trifluorohexyl)-myo-inositol-1,2,3,5-tetrakis(phosphate) octasodium salt [Compound 23] | > 10 µM |
| 4,6-O-bis(6-(4-(methoxymethyl)-1H-1,2,3-triazol-1-yl) hexyl)-myo-inositol-1,2,3,5-tetrakis(phosphate) octasodium salt [Compound 39] | ≤ 5 µM |
| 4,6-O-bis(10-carboxydecyl)-myo-inositol-1,2,3,5-tetrakis(phosphate) decasodium salt [Compound 19] | > 10 µM |
| 4,6-O-bis(19-methoxynonadec-10-yn-1-yl)-myo-inositol-1,2,3,5-tetrakis(phosphate) octasodium salt [Compound 20] | ≤ 5 µM |
| 4,6-O-bis((1-(3-methoxypropyl)-1H-1,2,3-triazol-4-yl)methyl)-myo-inositol-1,2,3,5-tetrakis(phosphate) octasodium salt [Compound 32] | ≤ 5 µM |
| 4,6-O-bis((3-(4-carboxybutanamido)propyl))-myo-inositol-1,2,3,5-tetrakis(phosphate) decasodium salt [Compound 45] | ≤ 5 µM |

| Compound | EC50 |
| --- | --- |
| 4,6-O-diheptyl-myo-inositol-1,2,3,5-tetrakis(phosphate) octasodium salt [Compound 5] | ≤ 5 µM |
| 4,6-O-dipropyl-myo-inositol-1,2,3,5-tetrakis(phosphate) octasodium salt [Compound 4] | ≤ 5 µM |
| CCCCCCCCCCOC1C(OP(=O)(O)O)C(OCCCCCCCCCC)C(OP(=O)(O)O)C(OP(=O)(O)O)C1OP(=O)(O)O (stereo not drawn) [Compound 2, 4,6-O-didecyl-myo-inositol-1,2,3,5-tetrakis(phosphate) octasodium salt] | > 10 µM |
| O=P(O)(O)OC1C(OCCCCCCCCCCO)C(OP(=O)(O)O)C(OP(=O)(O)O)C(OP(=O)(O)O)C1OCCCCCCCCCCO (stereo not drawn) [Compound 7, 4,6-O-bis(10-hydroxydecyl)-myo-inositol-1,2,3,5-tetrakis(phosphate) octasodium salt] | > 10 µM |
| COCCCCCCCOC1C(OP(=O)(O)O)C(OCCCCCCCOC)C(OP(=O)(O)O)C(OP(=O)(O)O)C1OP(=O)(O)O (stereo not drawn) [Compound 11, 4,6-O-bis(7-methoxyheptyl)-myo-inositol-1,2,3,5-tetrakis(phosphate) octasodium salt] | > 10 µM |
| COCCCCCCCCCOC1C(OP(=O)(O)O)C(OCCCCCCCCCOC)C(OP(=O)(O)O)C(OP(=O)(O)O)C1OP(=O)(O)O (stereo not drawn) [Compound 12, 4,6-O-bis(9-methoxynonyl)-myo-inositol-1,2,3,5-tetrakis(phosphate) octasodium salt] | > 10 µM |
| NCCCOC1C(OP(=O)(O)O)C(OCCCN)C(OP(=O)(O)O)C(OP(=O)(O)O)C1OP(=O)(O)O (stereo not drawn) [Compound 13, 4,6-O-bis(3-aminopropyl)-myo-inositol-1,2,3,5-tetrakis(phosphate) octasodium salt] | 5 to 10 µM |
| NCCCCCO[C@@H]1[C@@H](OP(=O)(O)O)[C@H](OCCCCCN)[C@@H](OP(=O)(O)O)[C@@H](OP(=O)(O)O)[C@H]1OP(=O)(O)O [Compound 14, 4,6-O-bis(5-aminopentyl)-myo-inositol-1,2,3,5-tetrakis(phosphate) octasodium salt] | ≤ 5 µM |
| NCCCCCCCCCCO[C@@H]1[C@@H](OP(=O)(O)O)[C@H](OCCCCCCCCCCN)[C@@H](OP(=O)(O)O)[C@@H](OP(=O)(O)O)[C@H]1OP(=O)(O)O [Compound 15, 4,6-O-bis(10-aminodecyl)-myo-inositol-1,2,3,5-tetrakis(phosphate) octasodium salt] | > 10 µM |
| O=P(O)(O)OC1C(OCCCCCn2cccn2)C(OP(=O)(O)O)C(OP(=O)(O)O)C(OP(=O)(O)O)C1OCCCCCn1cccn1 (stereo not drawn) [Compound 16, 4,6-O-bis(5-(1H-pyrazol-1-yl)pentyl)-myo-inositol-1,2,3,5-tetrakis(phosphate) octasodium salt] | ≤ 5 µM |
| O=P(O)(O)OC1C(OCCCCCn2cncn2)C(OP(=O)(O)O)C(OP(=O)(O)O)C(OP(=O)(O)O)C1OCCCCCn1cncn1 (stereo not drawn) [Compound 17, 4,6-O-bis(5-(1H-1,2,4-triazol-1-yl)pentyl)-myo-inositol-1,2,3,5-tetrakis(phosphate) octasodium salt] | > 10 µM |
| O=P(O)(O)O[C@@H]1[C@@H](OCCCC(F)(F)F)[C@H](OP(=O)(O)O)[C@H](OP(=O)(O)O)[C@H](OP(=O)(O)O)[C@H]1OCCCC(F)(F)F [Compound 22, 4,6-O-bis(4,4,4-trifluorobutyl)-myo-inositol-1,2,3,5-tetrakis(phosphate) octasodium salt] | ≤ 5 µM |
| COC(=O)NCCCCCOC1C(OP(=O)(O)O)C(OCCCCCNC(=O)OC)C(OP(=O)(O)O)C(OP(=O)(O)O)C1OP(=O)(O)O (stereo not drawn) [Compound 25, 4,6-O-bis(5-((methoxycarbonyl)amino)pentyl)-myo-inositol-1,2,3,5-tetrakis(phosphate) octasodium salt] | ≤ 5 µM |
| O=P(O)(O)OC1C(OCCC2CC2)C(OP(=O)(O)O)C(OP(=O)(O)O)C(OP(=O)(O)O)C1OCCC1CC1 (stereo not drawn) [Compound 28, 4,6-O-bis(2-cyclopropylethyl)-myo-inositol-1,2,3,5-tetrakis(phosphate) octasodium salt] | ≤ 5 µM |
| O=P(O)(O)O[C@@H]1[C@@H](OCCC2CCCC2)[C@H](OP(=O)(O)O)[C@H](OP(=O)(O)O)[C@H](OP(=O)(O)O)[C@H]1OCCC1CCCC1 [Compound 29, 4,6-O-bis(2-cyclopentylethyl)-myo-inositol-1,2,3,5-tetrakis(phosphate) octasodium salt] | ≤ 5 µM |
| CCCNC(=O)NCCCCCOC1C(OP(=O)(O)O)C(OCCCCCNC(=O)NCCC)C(OP(=O)(O)O)C(OP(=O)(O)O)C1OP(=O)(O)O (stereo not drawn) [Compound 30, 4,6-O-bis(5-(3-propylureido)pentyl)-myo-inositol-1,2,3,5-tetrakis(phosphate) octasodium salt] | ≤ 5 µM |
| O=C(O)CCn1cc(CO[C@@H]2[C@@H](OP(=O)(O)O)[C@H](OCc3cn(CCC(=O)O)nn3)[C@@H](OP(=O)(O)O)[C@@H](OP(=O)(O)O)[C@H]2OP(=O)(O)O)nn1 [Compound 31, 4,6-O-bis((1-(2-carboxyethyl)-1H-1,2,3-triazol-4-yl)methyl)-myo-inositol-1,2,3,5-tetrakis(phosphate) decasodium salt] | ≤ 5 µM |
| COCCCCCCn1cc(COC2C(OP(=O)(O)O)C(OCc3cn(CCCCCCOC)nn3)C(OP(=O)(O)O)C(OP(=O)(O)O)C2OP(=O)(O)O)nn1 (stereo not drawn) [Compound 33, 4,6-O-bis((1-(6-methoxyhexyl)-1H-1,2,3-triazol-4-yl)methyl)-myo-inositol-1,2,3,5-tetrakis(phosphate) octasodium salt] | 5 to 10 µM |

From patent publication US20260337212A1, “IP4-4,6 SUBSTITUTED DERIVATIVE COMPOUNDS FOR USE IN THE TREATMENT, INHIBITION OF PROGRESSION, AND PREVENTION OF ECTOPIC CALCIFICATION” (SANIFIT THERAPEUTICS, S.A., priority 2022, published 2026)
